In general, IC50 refers to the concentration at which inhibition is half-maximal.

Here are results for 21 molecules from US20240174690A1, “ANNULATED 2-AMINO-3-CYANO THIOPHENES AND DERIVATIVES FOR THE TREATMENT OF CANCER” (BOEHRINGER INGELHEIM INTERNATIONAL GMBH, priority 2021, published 2024).

This test deals with SK-CO-1 cells. Description: SK-CO-1 CTG proliferation assay (120 h) (CRC, G12V). The class given is cell-based. The note with it: SK-CO-1 cells (CRC, G12V), CTG 120 h. An outline of the steps:
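Compound exposure lasted 120 h in KRAS G12V SK-CO-1 cells seeded overnight at 500 cells/well in 10% FCS EMEM. CellTiter-Glo RLU normalised to DMSO wells gave percent viability, and a four-parameter model fit yielded IC50.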

Under “Homo sapiens”, `C[C@H](Oc1cc(-c2cccc(C(N)=O)c2)nc(-c2noc3c2CCC[C@@]32CCCc3sc(N)c(C#N)c32)n1)[C@@H]1CCCN1C` [II-133] came in with a half-maximal inhibitory concentration (IC50) of 89 nM.

Turning to `C[C@H](Oc1cc(-n2cc3ccn([C@@H](C)c4ccccn4)c(=O)c3n2)nc(-c2noc3c2CCC[C@@]32CCCc3sc(N)c(C#N)c32)n1)[C@@H]1CCCN1C` [II-205], the IC50 (Homo sapiens) came to 31 nM. This IC50 lies about 2.9-fold lower than the previous one.

`CC(=O)N1CCN(c2cc(O[C@@H](C)[C@@H]3CCCN3C)nc(-c3noc4c3CCC[C@@]43CCCc4sc(N)c(C#N)c43)n2)CC12CC2` [II-178] yielded an IC50 (Homo sapiens) of 149 nM.

Under “Homo sapiens”, `CO[C@H]1CCN(C)[C@@H]1[C@H](C)Oc1cc(-n2ccc(C(=O)N[C@H]3CCOC3)n2)nc(-c2noc3c2CCC[C@@]32CCCc3sc(N)c(C#N)c32)n1` [II-198] gave an IC50 of 3 nM.

`COCCNC(=O)c1ccn(-c2cc(O[C@@H](C)[C@@H]3[C@@H](OC)CCN3C)nc(-c3noc4c3CCC[C@@]43CCCc4sc(N)c(C#N)c43)n2)n1` [II-200] gave a 50% inhibitory concentration (IC50) (Homo sapiens) of 5 nM.

Take `C[C@H](Oc1cc(N2CC3COCC(C2)N3)nc(-c2noc3c2CCC[C@@]32CCCc3sc(N)c(C#N)c32)n1)[C@@H]1CCCN1C` [II-160]: inhibition (Homo sapiens) was half-maximal at 6850 nM (IC50).

`CO[C@H]1CCN(C)[C@@H]1[C@H](C)Oc1cc(-n2ccc(C(=O)N[C@@H](C)c3ccccn3)n2)nc(-c2noc3c2CCC[C@@]32CCCc3sc(N)c(C#N)c32)n1` [II-196]: the IC50 (Homo sapiens) turned out to be 4 nM.

As for `CCN1CCN(c2cc(O[C@@H](C)[C@@H]3C[C@@H](F)CN3C)nc(-c3noc4c3CCC[C@@]43CCCc4sc(N)c(C#N)c43)n2)CC12CC2` [II-185], where the note is “Homo sapiens”, the 50% inhibitory concentration (IC50) was 1290 nM.

With `COc1c(O[C@@H](C)[C@@H]2CCCN2C)nc(-c2noc3c2CCC[C@@]32CCCc3sc(N)c(C#N)c32)nc1-n1ccc(C(N)=O)n1` [II-159], where the note is “Homo sapiens”, the concentration for half-maximal inhibition (IC50) came out at 131 nM.

Under “Homo sapiens”, `C[C@H]1CNCCCN1c1cc(-n2ccnc2)nc(-c2noc3c2CCC[C@@]32CCCc3sc(N)c(C#N)c32)n1` [II-142] showed a concentration for half-maximal inhibition (IC50) of 2190 nM.

`C[C@H](Oc1cc(-n2cc3ccn([C@@H]4CCOC4)c(=O)c3n2)nc(-c2noc3c2CCC[C@@]32CCCc3sc(N)c(C#N)c32)n1)[C@@H]1CCCN1C` [II-203] yielded a 50% inhibitory concentration (IC50) (Homo sapiens) of 12 nM.

`CC(C)[C@@H]1CN(c2cc(O[C@@H](C)[C@@H]3CCCN3C)nc(-c3noc4c3CCC[C@@]43CCCc4sc(N)c(C#N)c43)n2)CCN1` [II-166] returned an IC50 (Homo sapiens) of 551 nM.

Consider `C[C@H](Oc1cc(-n2ccc(C(=O)N[C@H]3CCOC3)n2)nc(-c2noc3c2CCC[C@@]32CCCc3sc(N)c(C#N)c32)n1)[C@@H]1CCCN1C` [II-193], for which half-maximal inhibition (IC50) required 3 nM.

Turning to `C[C@H](Oc1cc(-n2cc3ccn(C[C@H]4CCOC4)c(=O)c3n2)nc(-c2noc3c2CCC[C@@]32CCCc3sc(N)c(C#N)c32)n1)[C@@H]1CCCN1C` [II-204], where the note is “Homo sapiens”, the half-maximal inhibitory concentration (IC50) came to 14 nM.

On to `C[C@H](Oc1cc(N2Cc3cnn(C)c3C2)nc(-c2onc3c2CCC[C@@]32CCCc3sc(N)c(C#N)c32)n1)[C@@H]1CCCN1C` [I-19], for which the half-inhibitory concentration (IC50) (Homo sapiens) stood at 56 nM.

As to `CO[C@H]1CCN(C)[C@@H]1[C@H](C)Oc1cc(-n2ccc(C(=O)N(C)C3COC3)n2)nc(-c2noc3c2CCC[C@@]32CCCc3sc(N)c(C#N)c32)n1` [II-199], half-maximal inhibition (Homo sapiens) (IC50) required 17 nM. This IC50 is about 3.3-fold lower than that of the molecule before.

`C[C@H](Oc1cc(-c2ccn(Cc3ncco3)n2)nc(-c2noc3c2CCC[C@@]32CCCc3sc(N)c(C#N)c32)n1)[C@@H]1CCCN1C` [II-128] came in with an IC50 (Homo sapiens) of 47 nM.

For the setting “Homo sapiens”, `CNC1CCN(c2cc(O[C@@H](C)[C@@H]3CCCN3C)nc(-c3noc4c3CCC[C@@]43CCCc4sc(N)c(C#N)c43)n2)CC1` [II-214] came in with an IC50 of 5350 nM. This IC50 lies about 110-fold higher than the previous one.

As for `C[C@H]1CNCCCN1c1cc(-c2ccn(C)n2)nc(-c2noc3c2CCC[C@@]32CCCc3sc(N)c(C#N)c32)n1` [II-140], half-maximal inhibition (Homo sapiens) (IC50) was put at 292 nM.

With `CO[C@H]1CCN(C)[C@@H]1[C@H](C)Oc1cc(-n2ccc(CC(=O)NC(C)C)n2)nc(-c2noc3c2CCC[C@@]32CCCc3sc(N)c(C#N)c32)n1` [II-183], inhibition (Homo sapiens) was half-maximal at 7 nM (IC50). Against the preceding molecule, the IC50 is about 42-fold lower.

With `CO[C@@H]1C[C@@H]([C@H](C)Oc2cc(-c3cnn(C)n3)nc(-c3onc4c3CCC[C@@]43CCCc4sc(N)c(C#N)c43)n2)N(C)C1` [I-17], half-maximal inhibition (Homo sapiens) (IC50) was put at 357 nM. Against the preceding molecule, the IC50 is about 51-fold higher.
